This note sets out measurements from patent US5945450A, “Naphthalene derivative” (Teijin Limited, priority 1994, dated 1999).

Common to all, as to assay type: cell-based
One test has as its system human IgE antibodies. As to the kind of experiment: In vitro inhibition of the production of human IgE antibodies (lymphocytes + IL-4 + anti CD40Ab + IL-10, ELISA). The conditions noted are these: Lymphocyte, 3 μM, read-out: Inhibition of antibody production (%) IgE. Here is the method:
(§1) According to the method described in J. Immunol., 146:1836-1842, 1991 and J. Immunol., 147:8-13, 1991, the concentrations of IgE and IgG antibodies were measured by the procedures described below.
(§2) Peripheral venous blood was sampled from the healthy person, and submitted to density-gradient centrifugation to isolate lymphocytes. The lymphocytes thus obtained were washed and suspended in a culture medium (RPMI-1640 (provided by Gibco)+10% heat-inactivated FCS (Whittaker)+100 µg/ml streptomycin+100 U/ml penicillin+2mM L-glutamine). The cell suspensions were cultured for 1 week in the presence/absence of the compounds of this invention at the concentrations as described in Tables 3-1 to 3-2 together with human interleukin 4 (IL-4, Genzyme)([…]), anti CD40 antibodies (anti CD40Ab, Biosource, clone B-B20)([…]) and human interleukin 10 (IL-10, Genzyme)([…]). The culture medium was supplied freshly to the cell suspension, and the mixture was further cultured for another week. The supernatant was sampled and the concentrations of IgE and IgG antibodies therein were measured by sandwich ELISA.
(§3) The ELISA was based, for the assay of IgE antibodies, on the use of rabbit anti-human IgE() antibodies (ICN) as the primary antibody and biotin-linked anti-human IgE monoclonal antibodies (G7-26, PharMingen) as the secondary antibody. For the assay of IgG antibodies, anti-human IgG monoclonal antibodies (G18-145, PharMingen) and biotin-linked donkey anti-human IgG antibodies (H+L)(Jackson) were used for the primary and secondary antibodies, respectively. For the assay of both IgE and IgG antibodies, Avidin-Biotin-Horse Radish Peroxidase (ABC kit, Vector Lab) and TMB (3,3',5,5'-tetramethylbenzidine) microwell peroxidase substrate system (Kirkegaard & Perry Laboratories Inc.) were used as the enzyme and the substrate, respectively. The assays were made by the use of conventionally known ELISA.
(§4) The inhibitory effect (%) of a given compound of this invention on the production of the antibody was calculated with respect to the concentration of the same antibody when the compound was not coexistent (refer to Uejima et al., American Academy of Allergy and Immunology, Proceedings of 1995 Annual Meeting, Program No. 818).

The test system of a further test is human IgG antibodies. As to the kind of experiment: In vitro inhibition of human IgG antibody production (lymphocytes + IL-4 + anti CD40Ab + IL-10, ELISA). The conditions noted are these: Lymphocyte, 3 μM. How it is done:
as §1, §2, §3, §4

A further test relates to TF (tissue factor). As to the kind of experiment: Inhibitory effects on the TF production in LPS-stimulated human peripheral blood monocytes. The conditions noted are these: Monocyte, LPS 1 μg/ml, 16 hours. How it is done: Peripheral venous blood was sampled from the healthy person, and submitted to density-gradient centrifugation so that monocytes might be isolated. The monocytes thus obtained were washed with minimum essential medium (MEM, Gibco) and suspended in a culture medium (RPMI-1640(Gibco)+25 mM HEPES buffer+100 μg/ml streptomycin+100 U/ml penicillin G+2 mM L-glutamine) to give a suspension with a density of 1×10^6 cells/ml. A 0.15 ml of the cell suspension was placed onto each of the wells of a 96-well microplate, to which the compound of this invention as described in Tables 4-1 to 4-2 was added (0.05 ml of the culture medium), and the assembly was placed for 1 hour in a CO2 incubator for cultivation. Then, LPS (lipopolysaccarides, E. coli 0111B4, Difco) 1 μg/ml was added thereto, and the assembly was further cultured for 16 hours. After the supernatant being removed, the residue was washed with physiological saline, 0.1 ml of 16 mM OG (n-octyl-β-D-glucopyranoside) was added thereto, and the assembly was stirred to make TF soluble. A 0.2 ml of physiological saline was added to each residue (final dilution was […]) and this preparation was used for determination of the coagulation stimulating activity (TF-like activity). The test compound had been dissolved in DMSO to give a 0.1 M solution which was diluted with the culture medium prior to use. The final concentration of DMSO was 0.01% or less.
To each well of the microplate, 50 μl of human plasma and 50 μl of the test sample prepared as above for determination of the coagulation stimulating activity, or 50 μl of standard thromboplastin (human thromboplastin, Thromborel S, Behringwerke) were added. The microplate was incubated at 37° C. for 5 minutes, to which was added 25 mM CaCl2 (50 μl/well) containing phosphorous lipids (Platelin, Organon Teknica) at a concentration of […] to initiate coagulation. Coagulation was determined on the basis of absorption at 540 nm, and the measurement lasted 7 to 20 minutes. The data were analyzed with a data analyzing software SOFTMax (Molecular Devices) and the maximum rate time was taken as the coagulation time. The logarithmic values of the coagulation times and standard thromboplastin concentrations are plotted, and a regression parabola was drawn among the dots to give a test curve. From the curve, the inhibitory effect (%) of a given test compound on TF production was calculated. (Refer to J. Imnmunol. Methods, 133:21-29, 1990, and Proc. Natl. Acad. Sci. USA, 89:10370-10374, 1992).

The term inhibition denotes the relative decrease from the control value, in per cent. `COC(=O)c1ccccc1NC(=O)c1ccc(Oc2ccc3ccccc3c2)cc1` [Compound No. 1101, 2-(4-(2-naphthyloxy)benzamide)benzoic Acid Methyl Ester]: the inhibition at 3 µM in the test with human IgE antibodies is 30.3%; with human IgG antibodies, -2.8%.

As for `O=C(Nc1ccccc1)c1ccc(Oc2ccc3ccccc3c2)cc1` [Compound No. 1105, N-phenyl-4-(2-naphtyloxy)benzamide], the inhibition at 3 µM in the test with human IgE antibodies was 42.4%; in the test with human IgG antibodies, -6.4%.

As for `O=C(Nc1ccccc1O)c1ccc(Oc2ccc3ccccc3c2)cc1` [Compound No. 1106, 2-(4-(2-naphtyloxy)benzamide)phenol], the values for the inhibition at 3 µM in the test on human IgE antibodies and in the test with human IgG antibodies were 42.6% and -25.3%, respectively.

In the case of `NS(=O)(=O)c1ccccc1NC(=O)c1ccc(Oc2ccc3ccccc3c2)cc1` [Compound No. 1107, 2-(4-(2-naphtyloxy)benzamide)benzenesulfonamide], the inhibition at 3 µM was 44.9% in the test on human IgE antibodies and -17.2% with human IgG antibodies.

Take `O=C(Nc1ccccc1-c1nnn[nH]1)c1ccc(Oc2ccc3ccccc3c2)cc1` [Compound No. 1109, 1-(4-(2-naphtyloxy)benzamide)-2-(tetrazol-5-yl)benzene]: in the test on TF (tissue factor), the inhibition at 1 µM came to 74.9%, the inhibition at 3 µM amounted to 99.4% and the inhibition at 10 µM turned out to be 99.7%.

With `Nc1cc(C(=O)Nc2ccccc2C(=O)O)ccc1Oc1ccc2ccccc2c1` [Compound No. 1118, 2-(3-amino-4-(2-naphtyloxy)benzamide)benzoic Acid], the inhibition at 3 µM in the test with human IgE antibodies is 77.2%; with human IgG antibodies, -12.9%; in the test with TF (tissue factor), 86.9%.

With `O=C(Nc1ccccc1C(=O)O)c1ccc(Oc2ccc3cc(O)ccc3c2)cc1` [Compound No. 1202, 2-(4-(6-hydroxy-2-naphtyloxy)benzamide)benzoic Acid], the inhibition at 3 µM was 76.6% in the test on human IgE antibodies, -8.7% in the test on human IgG antibodies and 33.4% in the test with TF (tissue factor).

For `O=C(Cc1ccc(Oc2ccc3cc(O)ccc3c2)cc1)Nc1ccccc1C(=O)O` [Compound No. 1208, 2-(4-(6-hydroxy-2-naphtyloxy)phenylacetamide)benzoic Acid], the inhibition at 3 µM in the test with human IgE antibodies is 86.2%; with human IgG antibodies, -8.4%.

Turning to `N#Cc1ccccc1NC(=O)c1ccc(Sc2ccc3ccccc3c2)cc1` [Compound No. 3103, 2-(4-(2-naphtylthio)benzamide)benzonitrile], the inhibition at 3 µM was 41.9% with human IgE antibodies, 3.5% with human IgG antibodies and 77.9% with TF (tissue factor).

Take `O=C(Nc1ccccc1-c1nnn[nH]1)c1ccc(Sc2ccc3ccccc3c2)cc1` [Compound No. 3104, 1-(4-(2-naphtylthio)benzamide)-2-(tetrazol-5-yl)benzene]: in the test on TF (tissue factor), the inhibition at 3 µM is 96.9%.

As to `O=C(Nc1ccccc1C(=O)O)c1ccc(Oc2cccc3ccccc23)cc1` [compound 1111], the inhibition at 3 µM worked out at 38% with human IgE antibodies, 20% with human IgG antibodies and 96.2% with TF (tissue factor). In addition, the inhibition at 1 µM in the test on TF (tissue factor) was -9%. In addition, in the test with TF (tissue factor), the inhibition at 10 µM was 100%.

`O=C(Nc1ccccc1C(=O)O)c1cccc(Oc2ccc3ccccc3c2)c1` [compound 1113]: in the test on TF (tissue factor), the inhibition at 1 µM amounted to 25.3%, the inhibition at 3 µM turned out to be 83.6% and the inhibition at 10 µM is 100%.

For `O=C(Nc1ccccc1C(=O)O)c1ccc(Oc2ccc3ccccc3c2)c([N+](=O)[O-])c1` [compound 1116], the figures for the inhibition at 3 µM in the test with human IgE antibodies, in the test on human IgG antibodies and in the test on TF (tissue factor) were 93%, 36.9% and 96.6%, respectively.

Consider `O=C(Nc1ccccc1C(=O)O)c1ccc(Oc2ccc3ccccc3c2)c(C(=O)O)c1` [compound 1120], for which the inhibition at 3 µM came out at 19.9% in the test on human IgE antibodies and 13.6% in the test on human IgG antibodies.

Take `O=C(Nc1ccccc1C(=O)O)c1ccc(Oc2ccc3ccccc3c2)c(C(=O)Nc2ccccc2C(=O)O)c1` [compound 1122]: the inhibition at 3 µM is 59.9% in the test on human IgE antibodies and 9.7% in the test on human IgG antibodies.

For the compound `COC(=O)c1ccccc1NC(=O)Cc1ccc(Oc2ccc3ccccc3c2)cc1` [compound 1123], the inhibition at 3 µM in the test on human IgE antibodies was 21.7%; with human IgG antibodies, -0.8%.

For `O=C(CCc1ccc(Oc2ccc3ccccc3c2)cc1)Nc1ccccc1C(=O)O` [compound 1146], the inhibition at 3 µM in the test on TF (tissue factor) was determined as 23.5%.

`O=C(C=Cc1ccc(Oc2ccc3ccccc3c2)cc1)Nc1ccccc1C(=O)O` [compound 1148]: the inhibition at 3 µM was found to be 25.5% with human IgE antibodies, 10.3% with human IgG antibodies and 92.9% in the test on TF (tissue factor).

On to `CC(C(=O)Nc1ccccc1C(=O)O)c1ccc(Oc2ccc3ccccc3c2)cc1` (stereo not shown) [compound 1150], for which the inhibition at 3 µM with human IgE antibodies is 64.4%; in the test with human IgG antibodies it was 3.3%.

Turning to `O=C(Nc1ccccc1C(=O)O)c1ccc(Oc2ccc3cc(OCc4ccccc4)ccc3c2)cc1` [compound 1206], the inhibition at 3 µM stood at 84% in the test on human IgE antibodies and 11.5% with human IgG antibodies.

As to `CC(C)(C)Oc1ccc2cc(Oc3ccc(CC(=O)Nc4ccccc4C(=O)O)cc3)ccc2c1` [compound 1210], the values for the inhibition at 3 µM in the test on human IgE antibodies and in the test with human IgG antibodies were 92.8% and 59.9%, respectively.

On to `O=C(Cc1ccc(Oc2ccc3cc(OC4CCCCC4)ccc3c2)cc1)Nc1ccccc1C(=O)O` [compound 1212], for which the values for the inhibition at 3 µM with human IgE antibodies and with human IgG antibodies were 89.1% and 74.6%, respectively.

For the compound `C=CCOc1ccc2cc(Oc3ccc(CC(=O)Nc4ccccc4C(=O)O)cc3)ccc2c1` [compound 1218], the values for the inhibition at 3 µM with human IgE antibodies and in the test with human IgG antibodies were 91.4% and 47.8%, respectively.

In the case of `O=C(Cc1ccc(Oc2ccc3cc(OCc4ccccc4)ccc3c2)cc1)Nc1ccccc1C(=O)O` [compound 1224], the figures for the inhibition at 3 µM in the test on human IgE antibodies and in the test with human IgG antibodies were 78.6% and 83.2%, respectively.

Take `O=C(Cc1ccc(Oc2ccc3cc(OCc4ccc5ccccc5c4)ccc3c2)cc1)Nc1ccccc1C(=O)O` [compound 1228]: the inhibition at 3 µM with human IgE antibodies came out at 98.9%; in the test on human IgG antibodies it was 42.4%.

In the case of `O=C(Nc1ccccc1C(=O)O)c1ccc(COc2ccc3ccccc3c2)cc1` [compound 5102], in the test with TF (tissue factor), the inhibition at 1 µM worked out at 19.8%, the inhibition at 3 µM was 74.1% and the inhibition at 10 µM turned out to be 99.9%.

On to `O=C(Cc1ccc(COc2ccc3ccccc3c2)cc1)Nc1ccccc1C(=O)O` [compound 5104], for which the values for the inhibition at 3 µM in the test on human IgE antibodies and in the test on human IgG antibodies were 51.4% and 1.6%, respectively.

For `O=C(Nc1ccccc1C(=O)O)c1ccc(CSc2ccc3ccccc3c2)cc1` [compound 6102], in the test on TF (tissue factor), the inhibition at 3 µM was 75.8% and the inhibition at 10 µM came out at 100%.

In the case of `COC(c1ccc(C(=O)Nc2ccccc2C(=O)O)cc1)c1ccc2ccccc2c1` (stereo not shown) [compound 8102], the inhibition at 3 µM in the test on human IgE antibodies was determined as 60%; with human IgG antibodies, 9.7%.
